ChEMBL document CHEMBL1671626, “In vitro profiling of ceftaroline against a collection of recent bacterial clinical isolates from across the United States” (2008)
≈ marks a conversion by molar mass, not a printed value.

Assays:
Format in all cases: functional
Enterobacter cloacae [1] = assay: Antibacterial activity against ceftazidime-susceptible Enterobacter cloacae assessed as susceptible isolates by CLSI M7-A7 broth microdilution method
Escherichia coli [2] = assay: Antibacterial activity against ceftazidime-nonsusceptible Escherichia coli by CLSI M7-A7 broth microdilution method
Enterobacter cloacae [3] = assay: Antibacterial activity against ceftazidime-susceptible Enterobacter cloacae assessed as resistant isolates by CLSI M7-A7 broth microdilution method
Streptococcus pyogenes [4] = assay: Antibacterial activity against erythromycin-susceptible Streptococcus pyogenes by CLSI M7-A7 broth microdilution method
Enterobacteriaceae [5] = assay: Antibacterial activity against ceftazidime-nonsusceptible Enterobacteriaceae by CLSI M7-A7 broth microdilution method
Streptococcus agalactiae [6] = assay: Antibacterial activity against erythromycin-susceptible Streptococcus agalactiae assessed as susceptible isolates by CLSI M7-A7 broth microdilution method
Streptococcus viridans [7] = assay: Antibacterial activity against penicillin-susceptible Streptococcus viridans assessed as susceptible isolates by CLSI M7-A7 broth microdilution method
Morganella morganii = assay: Antibacterial activity against ceftazidime-susceptible Morganella morganii assessed as susceptible isolates by CLSI M7-A7 broth microdilution method
Pasteurella multocida [8] = assay: Antibacterial activity against Pasteurella multocida by CLSI M7-A7 broth microdilution method
Escherichia coli [9] = assay: Antibacterial activity against ceftazidime-nonsusceptible Escherichia coli assessed as susceptible isolates by CLSI M7-A7 broth microdilution method
Streptococcus pneumoniae [10] = assay: Antibacterial activity against penicillin-resistant Streptococcus pneumoniae assessed as susceptible isolates by CLSI M7-A7 broth microdilution method
Pasteurella multocida [11] = assay: Antibacterial activity against Pasteurella multocida assessed as susceptible isolates by CLSI M7-A7 broth microdilution method
Streptococcus viridans [12] = assay: Antibacterial activity against penicillin-susceptible Streptococcus viridans assessed as resistant isolates by CLSI M7-A7 broth microdilution method
Streptococcus pneumoniae [13] = assay: Antibacterial activity against penicillin-resistant Streptococcus pneumoniae assessed as resistant isolates by CLSI M7-A7 broth microdilution method
Staphylococcus aureus [14] = assay: Antibacterial activity against coagulase-negative and oxacillin-susceptible Staphylococcus aureus by CLSI M7-A7 broth microdilution method
Acinetobacter [15] = assay: Antibacterial activity against multidrug-resistant Acinetobacter assessed as susceptible isolates by CLSI M7-A7 broth microdilution method
Acinetobacter [16] = assay: Antibacterial activity against imipenem-susceptible Acinetobacter assessed as susceptible isolates by CLSI M7-A7 broth microdilution method
Streptococcus pyogenes [17] = assay: Antibacterial activity against erythromycin-susceptible Streptococcus pyogenes assessed as susceptible isolates by CLSI M7-A7 broth microdilution method
Acinetobacter [18] = assay: Antibacterial activity against imipenem-susceptible Acinetobacter by CLSI M7-A7 broth microdilution method
Citrobacter freundii [19] = assay: Antibacterial activity against ceftazidime-nonsusceptible Citrobacter freundii by CLSI M7-A7 broth microdilution method
Streptococcus viridans [20] = assay: Antibacterial activity against penicillin-nonsusceptible Streptococcus viridans assessed as susceptible isolates by CLSI M7-A7 broth microdilution method
Streptococcus agalactiae [21] = assay: Antibacterial activity against erythromycin-nonsusceptible Streptococcus agalactiae by CLSI M7-A7 broth microdilution method
Citrobacter freundii [22] = assay: Antibacterial activity against ceftazidime-susceptible Citrobacter freundii assessed as susceptible isolates by CLSI M7-A7 broth microdilution method
Staphylococcus aureus [23] = assay: Antibacterial activity against coagulase-negative and oxacillin-susceptible Staphylococcus aureus assessed as resistant isolates by CLSI M7-A7 broth microdilution method
Enterobacter cloacae [24] = assay: Antibacterial activity against ceftazidime-nonsusceptible Enterobacter cloacae assessed as resistant isolates by CLSI M7-A7 broth microdilution method
Moraxella catarrhalis = assay: Antibacterial activity against beta lactamase-positive Moraxella catarrhalis by CLSI M7-A7 broth microdilution method
Streptococcus viridans [25] = assay: Antibacterial activity against penicillin-susceptible Streptococcus viridans by CLSI M7-A7 broth microdilution method
Haemophilus influenzae = assay: Antibacterial activity against beta lactamase-negative Haemophilus influenzae by CLSI M7-A7 broth microdilution method
Proteus mirabilis = assay: Antibacterial activity against ceftazidime-susceptible Proteus mirabilis assessed as susceptible isolates by CLSI M7-A7 broth microdilution method
Escherichia coli [26] = assay: Antibacterial activity against ceftazidime-nonsusceptible Escherichia coli assessed as resistant isolates by CLSI M7-A7 broth microdilution method
Klebsiella pneumoniae [27] = assay: Antibacterial activity against ceftazidime-nonsusceptible Klebsiella pneumoniae assessed as resistant isolates by CLSI M7-A7 broth microdilution method
Staphylococcus aureus [28] = assay: Antibacterial activity against coagulase-negative and oxacillin-resistant Staphylococcus aureus by CLSI M7-A7 broth microdilution method
Citrobacter freundii [29] = assay: Antibacterial activity against ceftazidime-nonsusceptible Citrobacter freundii assessed as resistant isolates by CLSI M7-A7 broth microdilution method
Escherichia coli [30] = assay: Antibacterial activity against ceftazidime-susceptible Escherichia coli by CLSI M7-A7 broth microdilution method
Providencia sp. [31] = assay: Antibacterial activity against ceftazidime-susceptible Providencia sp. assessed as resistant isolates by CLSI M7-A7 broth microdilution method
Enterobacteriaceae [32] = assay: Antibacterial activity against ceftazidime-susceptible Enterobacteriaceae assessed as resistant isolates by CLSI M7-A7 broth microdilution method
Streptococcus pyogenes [33] = assay: Antibacterial activity against erythromycin-nonsusceptible Streptococcus pyogenes assessed as susceptible isolates by CLSI M7-A7 broth microdilution method
Streptococcus agalactiae [34] = assay: Antibacterial activity against erythromycin-nonsusceptible Streptococcus agalactiae assessed as susceptible isolates by CLSI M7-A7 broth microdilution method
Klebsiella pneumoniae [35] = assay: Antibacterial activity against ceftazidime-nonsusceptible Klebsiella pneumoniae assessed as susceptible isolates by CLSI M7-A7 broth microdilution method
Staphylococcus aureus [36] = assay: Antibacterial activity against coagulase-negative and oxacillin-resistant Staphylococcus aureus assessed as susceptible isolates by CLSI M7-A7 broth microdilution method
Streptococcus viridans [37] = assay: Antibacterial activity against penicillin-nonsusceptible Streptococcus viridans by CLSI M7-A7 broth microdilution method
Providencia sp. [38] = assay: Antibacterial activity against ceftazidime-susceptible Providencia sp. assessed as susceptible isolates by CLSI M7-A7 broth microdilution method
Enterobacter cloacae [39] = assay: Antibacterial activity against ceftazidime-susceptible Enterobacter cloacae by CLSI M7-A7 broth microdilution method
Citrobacter freundii [40] = assay: Antibacterial activity against ceftazidime-susceptible Citrobacter freundii by CLSI M7-A7 broth microdilution method
Staphylococcus aureus [41] = assay: Antibacterial activity against methicillin-resistant Staphylococcus aureus assessed as resistant isolates by CLSI M7-A7 broth microdilution method

## CO/N=C(\C(=O)N[C@@H]1C(=O)N2C(C(=O)O)=C(CSc3nc(=O)c(O)nn3C)CS[C@H]12)c1csc(N)n1 [CEFTRIAXONE]
Enterobacter cloacae [1]
  Activity: 98%
Escherichia coli [2]
  MIC50: > 16 µg/mL
  MIC90: > 16 µg/mL
Enterobacter cloacae [3]
  Activity: 0%
Streptococcus pyogenes [4]
  MIC: ≤ 0.015 µg/mL
  MIC50: ≤ 0.015 µg/mL
  MIC90: 0.03 µg/mL (≈ 0.0541 µM)
Enterobacteriaceae [5]
  MIC50: > 16 µg/mL
  MIC90: > 16 µg/mL
Streptococcus agalactiae [6]
  Activity: 100%
Streptococcus viridans [7]
  Activity: 100%
Morganella morganii
  Activity: 100%
Pasteurella multocida [8]
  MIC: ≤ 0.015 µg/mL
  MIC50: ≤ 0.015 µg/mL
  MIC90: ≤ 0.015 µg/mL
Escherichia coli [9]
  Activity: 9.5%
Streptococcus pneumoniae [10]
  Activity: 79.4%
Pasteurella multocida [11]
  Activity: 100%
Streptococcus viridans [12]
  Activity: 0%
Streptococcus pneumoniae [13]
  Activity: 6.8%
Staphylococcus aureus [14]
  MIC50: 1 µg/mL (≈ 1.8 µM)
  MIC90: 4 µg/mL (≈ 7.21 µM)
Acinetobacter [15]
  Activity: 0%
Acinetobacter [16]
  Activity: 44.7%
Streptococcus pyogenes [17]
  Activity: 100%
Acinetobacter [18]
  MIC50: 16 µg/mL (≈ 28.9 µM)
  MIC90: > 16 µg/mL
Citrobacter freundii [19]
  MIC50: > 16 µg/mL
  MIC90: > 16 µg/mL
Streptococcus viridans [20]
  Activity: 28.6%
Streptococcus agalactiae [21]
  MIC50: 0.06 µg/mL (≈ 0.108 µM)
  MIC90: 0.12 µg/mL (≈ 0.216 µM)
Citrobacter freundii [22]
  Activity: 100%
Staphylococcus aureus [23]
  Activity: 0%
Enterobacter cloacae [24]
  Activity: 0%
Moraxella catarrhalis
  MIC: ≤ 0.25 µg/mL
  MIC50: ≤ 0.25 µg/mL
  MIC90: 1 µg/mL (≈ 1.8 µM)
Streptococcus viridans [25]
  MIC50: 0.06 µg/mL (≈ 0.108 µM)
  MIC90: 0.25 µg/mL (≈ 0.451 µM)
Haemophilus influenzae
  MIC: ≤ 0.06 µg/mL
  MIC50: ≤ 0.06 µg/mL
  MIC90: ≤ 0.06 µg/mL
Proteus mirabilis
  Activity: 96.6%
Escherichia coli [26]
  Activity: 0%
Klebsiella pneumoniae [27]
  Activity: 0%
Staphylococcus aureus [28]
  MIC50: 16 µg/mL (≈ 28.9 µM)
  MIC90: > 32 µg/mL
Citrobacter freundii [29]
  Activity: 0%
Escherichia coli [30]
  MIC50: ≤ 0.06 µg/mL
  MIC90: 0.12 µg/mL (≈ 0.216 µM)
Providencia sp. [31]
  Activity: 0%
Enterobacteriaceae [32]
  Activity: 0%
Streptococcus pyogenes [33]
  Activity: 100%
Streptococcus agalactiae [34]
  Activity: 97.6%
Klebsiella pneumoniae [35]
  Activity: 12.1%
Staphylococcus aureus [36]
  Activity: 27.1%
Streptococcus viridans [37]
  MIC50: 2 µg/mL (≈ 3.61 µM)
  MIC90: 8 µg/mL (≈ 14.4 µM)
Providencia sp. [38]
  Activity: 100%
Enterobacter cloacae [39]
  MIC50: 0.12 µg/mL (≈ 0.216 µM)
  MIC90: 1 µg/mL (≈ 1.8 µM)
Citrobacter freundii [40]
  MIC50: 0.12 µg/mL (≈ 0.216 µM)
  MIC90: 0.5 µg/mL (≈ 0.902 µM)
Staphylococcus aureus [41]
  Activity: 33.1%
